Patent publication US20230364032A1, “USE OF 2-HOBA TO TREAT ATHEROSCLEROSIS” (Vanderbilt University, priority 2020, published 2023)
“And” between values parts separate entries of the source, which are not always exact repeats. Equal entries are not always repeated. “Also recorded” adds a separate entry of the source.

Legend:
[1] = tested on: hypercholesterolemic Ldlr−/− mice; experiment: Atherosclerosis in western-diet-fed Ldlr−/− mice (Oil-Red-O proximal aorta sections and en face aorta); assay type: in vivo, mouse; details: western diet 16 weeks; for effect on atherosclerosis: hypercholesterolemic Ldlr−/− mice
Method: Ldlr^−/− and WT on C57BL/6 background mice were obtained from the Jackson Laboratory. Animal protocols were performed according to the regulations of Vanderbilt University's Institutional Animal Care and Usage Committee. Mice were maintained on chow or a Western-type diet containing 21% milk fat and 0.15% cholesterol (Teklad). Eight week old, female Ldlr^−/− mice on a chow diet were pretreated with vehicle alone (Water) or containing either 1 g/L of 4-HOBA or 1 g/L of 2-HOBA. 4-HOBA (as hydrochloride salt) was synthesized as previously described^21. 2-HOBA (as the acetate salt, CAS 1206675-01-5) was manufactured by TSI Co., Ltd. (Missoula, MT) and obtained from Metabolic Technologies, Inc., Ames, IA^24. A commercial production lot was used (Lot 16120312), and the purity of the commercial lot was verified to be >99% via HPLC and NMR spectroscopy^24. After two weeks, the mice continued to receive these treatments but were switched to a western diet for 16 weeks to induce hypercholesterolemia and atherosclerosis. Similarly, 12 week-old male Ldlr^−/− mice were pretreated with vehicle alone (water) or containing 1 g/L of 2-HOBA for two weeks and were then switched to a western diet for 16 weeks to induce hypercholesterolemia and atherosclerosis, while continuing the treatment with 2-HOBA or water alone^58, 59, 60 Based on the average weight and daily consumption of water per mouse the estimated daily dosage with 1 g/L of 2-HOBA is 200 mg/Kg. […] Eight week old, male Ldlr^−/− mice were fed a western diet for 16 weeks and were continuously treated with water containing either 2-HOBA or 4-HOBA. Urine samples were collected using metabolic cages (2 mice in one cage) during 18 h after oral gavage with either 2-HOBA or 4-HOBA (5 mg each mouse).
The extent of atherosclerosis was examined both Oil-Red-O-stained cross-sections of the proximal aorta and by en face analysis^30. Briefly, cryosections of 10-micron thickness were cut from the region of the proximal aorta starting from the end of the aortic sinus and for 300 μm distally, according to the method of Paigen et al.^62. The Oil red-O staining of 15 serial sections from the root to ascending aortic region were used to quantify the Oil red-O-positive staining area per mouse. The mean from the 15 serial sections was applied for the aortic root atherosclerotic lesion size per mouse using the KS300 imaging system (Kontron Elektronik GmbH) as described^63, 64, 65. All other stains were done using sections that were 40 to 60 μm distal of the aortic sinus. For each mouse, 4 sections were stained and quantitation was done on the entire cross section of all 4 sections. For immunofluorescence staining, 5 μm cross-sections of the proximal aorta were fixed in cold acetone (Sigma), blocked in Background Buster (Innovex), incubated with indicated primary antibodies (MDA and CD68) at 4° C. for overnight. After incubation with fluorescent labeled secondary antibodies at 37 C for 1 hour, the nucleus was counterstained with Hoechst. Images were captured with a fluorescence microscope (Olympus IX81) and SlideBook 6 (Intelligent-Image) software and quantitated using ImageJ software (NIH)^66.

MDA-apoAI = experiment: Plasma MDA-apoAI by immunoprecipitation and western blotting; assay type: in vivo, mouse
Method: FIGS. 7A-7G show the effects of 2-HOBA on MDA-HDL adducts and HDL function. (7A) The levels or MDA adducts were measured by ELISA in HDL isolated from Ldlr mice treated as described in FIG. 1. Data are presented as mean±SEM (N=8 pet group), *** p<0.001, One-way ANOVA with Bonferroni's post hoc test. (7B) Western blots of apoAl and MDA-apoAl in HDL isolated from plasma by immunoprecipitation using primary anti-apoAl antibody. Ldlf mice were treated as described In FIG. 1 and apoAl and MDA-apoAl from Ldlr mice consuming a chow diet are included f0t comparison. (7C) Quantitation using lmageJ software of the mean density ratio (arbitrary units) of MDA-apoAl to apoAl detected by Western blotting (7B). […]
The study was approved by the Vanderbilt University Institutional Review Board (IRB), and all participants gave their written informed consent. […] After stopping the reaction, the O.D. was measured at 450 nm wavelength. MDA-ApoAI was detected in mouse plasma by immunoprecipitation of ApoAI and western blotting. […] Proteins were visualized and quantitated by Odyssey 3.0 Quantification software (LI-COR).

[2] = male Ldlr−/− mice, 1 g/L, compared to water

| SMILES | reduction of extent of proximal aortic atherosclerosis ([1]; female Ldlr−/− mice, 1 g/L in water, compared to 4-HOBA) [%] | reduction of extent of proximal aortic atherosclerosis ([1]; female Ldlr−/− mice, 1 g/L in water, compared to vehicle) | reduction of extent of aortic atherosclerosis, en face analysis ([1]; female Ldlr−/− mice, 1 g/L, compared to 4-HOBA) [%] | reduction of extent of aortic atherosclerosis, en face analysis ([1]; female Ldlr−/− mice, 1 g/L, compared to vehicle) | effect on atherosclerosis ([1]; 1 g/L) | reduction of extent of proximal aortic atherosclerosis [1, 2] [%] | reduction of extent of whole aorta atherosclerosis [1, 2] [%] | plasma MDA-apoAI adducts (MDA-apoAI; Ldlr−/− mice consuming a western diet) | plasma levels of MDA-apoAI compared to Ldlr−/− mice consuming a chow diet (MDA-apoAI; after 16 weeks on the western-type diet) |
| --- | --- | --- | --- | --- | --- | --- | --- | --- | --- |
| NCc1ccccc1O [2-HOBA, 2-hydroxybenzylamine] | 31.5 | 31% and 31.1% | 59.1 | 60% and 60.3% | attenuates atherosclerosis; also recorded: reduces atherosclerotic lesions | 37 | 45 | inhibited; also recorded: dramatically reduced | – |
| NCc1ccc(O)cc1 [4-HOBA, 4-hydroxybenzylamine, reference compound] | – | – | – | – | not atheroprotective | – | – | – | markedly increased |
